From publication PMC7313537 (PLoS ONE, 2020)
Where two headings read alike, the source gives them in different places.

How the values were obtained:
[1] = molecular target: AKT1 (Homo sapiens, UniProt P31749); test: Enzyme selectivity panel; type: biochemical; conditions: 1 mM ATP
Procedure: (§1) The kinase assays were carried out at room temperature in HEPES 50 mM, pH 7.0, NaN3 0.02%, BSA 0.01%, Orthovanadate 0.1 mM, DTT 1 mM, MgCl2 10 mM in a final volume of 10 µL. Test compounds were transferred to the plate wells by ECHO liquid handler (Labcyte, San Jose, CA) with 0.5% dimethyl sulfoxide (DMSO) in the final assay. Peptide/kinase mixtures were diluted in the appropriate enzymatic buffer and 5µL of the mixture was added to a 384-well small volume black plate. Reactions were initiated by the addition of 5 µL ATP in reaction buffer, the final reaction mixture consisted of 500 nM peptide substrate, 1 mM ATP, and appropriate amount of specific kinase. […] The plates were then sealed and centrifuged at 1800 rpm for 2 minutes. […] Half maximal inhibitory concentration (IC50) determination was performed by fitting the curve of percent control activity versus the log of the compound concentration using the GraphPad Prism 6.0 software.

[2] = molecular target: BTK (Homo sapiens, UniProt Q06187); test: Enzyme selectivity panel; type: biochemical; conditions: 1 mM ATP
Procedure: as §1

[3] = molecular target: CLK3 (Homo sapiens, UniProt P49761); test: Enzyme selectivity panel; type: biochemical; conditions: 1 mM ATP
Procedure: as §1

[4] = molecular target: DYRK2 (Homo sapiens, UniProt Q92630); test: Enzyme selectivity panel; type: biochemical; conditions: 1 mM ATP
Procedure: as §1

[5] = molecular target: EPHA2 (Homo sapiens, UniProt P29317); test: Enzyme selectivity panel; type: biochemical; conditions: 1 mM ATP
Procedure: as §1

[6] = molecular target: T1, EPHB4 (Homo sapiens, UniProt P54760); test: Enzyme selectivity panel; type: biochemical; conditions: 1 mM ATP
T1 construct: purchased In-house HTRF panel (56 kinases) and PerkinElmer (161-kinase panel)
Procedure: as §1

[7] = molecular target: LCK (Homo sapiens, UniProt P06239); test: Enzyme selectivity panel; type: biochemical; conditions: 1 mM ATP
Procedure: as §1

[8] = molecular target: LOK (Homo sapiens, UniProt O94804); test: Enzyme selectivity panel; type: biochemical; conditions: 1 mM ATP
Procedure: as §1

[9] = molecular target: T2, PIM1 (Homo sapiens, UniProt P11309); test: Enzyme selectivity panel; type: biochemical; conditions: 1 mM ATP
T2 construct: purchased In-house HTRF panel (56 kinases) and PerkinElmer (161-kinase panel)
Procedure: as §1

[10] = molecular target: PKCD (Homo sapiens, UniProt Q05655); test: Enzyme selectivity panel; type: biochemical; conditions: 1 mM ATP
Procedure: as §1

[11] = molecular target: PLK3 (Homo sapiens, UniProt Q9H4B4); test: Enzyme selectivity panel; type: biochemical; conditions: 1 mM ATP
Procedure: as §1

[12] = molecular target: PRKAA1 (Homo sapiens, UniProt Q13131); test: Enzyme selectivity panel; type: biochemical; conditions: 1 mM ATP
Procedure: as §1

[13] = molecular target: ROCK1 (Homo sapiens, UniProt Q13464); test: Enzyme selectivity panel; type: biochemical; conditions: 1 mM ATP
Procedure: as §1

[14] = molecular target: SGK3 (Homo sapiens, UniProt Q96BR1); test: Enzyme selectivity panel; type: biochemical; conditions: 1 mM ATP
Procedure: as §1

[15] = molecular target: TGFBR1 (Homo sapiens, UniProt P36897); test: Enzyme selectivity panel; type: biochemical; conditions: 1 mM ATP
Procedure: as §1

[16] = molecular target: TRKA (Homo sapiens, UniProt P04629); test: Enzyme selectivity panel; type: biochemical; conditions: 1 mM ATP
Procedure: as §1

[17] = tested on: FGFR3 phosphorylation in RT-4 cells; test: Proximity ligation assay; type: cell-based; conditions: 100 nM, 1 hour
Excerpt: S4 Figure. FGFR3 Phosphorylation Detected by Proximity Ligation Assay. […] Primary antibodies were rabbit anti-FGFR3 (Abcam, Cambridge, UK, #137084) at a 1:250 dilution and mouse 4G10 platinum anti-phosphotyrosine monoclonal cocktail IgG2b (Millipore, Burlington, MA, #05-1050) at a 1:250 dilution. Secondary probes were Duolink In Situ PLA® Probe Anti-Rabbit PLUS, affinity purified donkey anti-rabbit IgG (H+L) and Duolink In Situ PLA® Probe Anti-Mouse MINUS, Affinity purified donkey anti-mouse IgG (H+L). Detection was via Duolink In Situ Detection Reagents Red.

[18] = tested on: KG1; test: Cell viability assay (CellTiter-Glo); type: cell-based; conditions: Homo sapiens; KG1, parental line to KG1a
[19] = tested on: MM1.S; test: Cell viability assay (CellTiter-Glo); type: cell-based; conditions: Homo sapiens, Myeloma, lacking FGFR alterations
[20] = Plasma protein binding (equilibrium dialysis); type: in vitro ADME; conditions: read-out: PPB (% free)
Procedure: The final DMSO content in all cases was <0.1%. Each condition was incubated in duplicate. For protein binding determination, the Multi-Equilibrium Dialyzer System™ and diachema membranes from Harvard Apparatus (Holliston, MA) were utilized. Equilibrium dialysis was carried out in Teflon cells separated by a dialysis membrane with a molecular weight cutoff of 10,000 Daltons. […] The cells were rotated at a speed of 12 rpm in a 37°C water bath for 2 hours. Following the incubation period, buffer and serum/plasma samples were drained separately into empty preweighed glass test tubes. The tubes were reweighed, and the exact volume of sample recovered from each side of the dialysis cell was calculated using the mass. A 75-μL aliquot of each sample (buffer or serum/plasma) was added to a 96-well plate containing a protein precipitation solution of 100% methanol and 0.2 μM dextrorphan as the internal standard; 75 μL of blank buffer or plasma/serum was added to the plate to ensure identical composition across all samples. Prior to analysis, samples prepared in the 96-well plate were vigorously vortexed for approximately 5 minutes and centrifuged for 10 minutes at ~1700 × g to remove denatured proteins and particulate matter. The supernatant was transferred and analyzed using LC-MS/MS.

[21] = Pharmacokinetic analyses; type: in vivo, cynomolgus monkeys; conditions: male monkey
Procedure: The i.v. formulation in dogs and monkeys was 5% DMAC and 20% sulfobutyl ether β-cyclodextrin in saline. The oral formulation in all species was 5% DMAC in 0.5% methylcellulose aqueous solution. For rats, blood samples were collected at predose, 5 (i.v. dosing only), 15, and 30 minutes, and 1, 2, 4, 6, 8, and 24 hours. For dogs, blood samples were collected at predose, 2.5 and 5 (i.v. dosing only), 15, and 30 minutes, and 1, 2, 3, 4, 6, 8, 12, and 24 hours postdose. For monkeys, blood samples were collected at predose, 5 and 10 (i.v. dosing only), 15, and 30 minutes, and 1, 2, 3, 4, 6, 8, 12, 16, and 24 hours postdose. Collected blood samples were processed to extract plasma by centrifugation and stored at −20 °C until analysis.
The plasma was protein precipitated and the diluted supernatant was analyzed using LC/MS/MS. A standard curve was prepared in plasma from 1 to 5,000 nM and processed in the same manner as the samples. The pharmacokinetic parameters were determined using WinNonLin 6.3.

[22] = Plasma exposure after single oral dose in KATO III tumor-bearing mice; type: in vivo, mouse; conditions: single oral dose of 0.1, 1, and 10 mg/kg
Procedure: (A) Pharmacokinetic profile of INCB054828 in the mouse. […] (B) Pharmacokinetic-pharmacodynamic analyses in KATO III tumors. […] Plasma was subjected to analytical analysis and phospho-FGFR2 in tumor homogenate was determined by ELISA.

[23] = Preclinical safety studies; type: in vivo
[24] = tested on: primary T cells from normal donors; conditions: up to 1,500 nM

T2 sequence (P11309 whole entry, species assumed): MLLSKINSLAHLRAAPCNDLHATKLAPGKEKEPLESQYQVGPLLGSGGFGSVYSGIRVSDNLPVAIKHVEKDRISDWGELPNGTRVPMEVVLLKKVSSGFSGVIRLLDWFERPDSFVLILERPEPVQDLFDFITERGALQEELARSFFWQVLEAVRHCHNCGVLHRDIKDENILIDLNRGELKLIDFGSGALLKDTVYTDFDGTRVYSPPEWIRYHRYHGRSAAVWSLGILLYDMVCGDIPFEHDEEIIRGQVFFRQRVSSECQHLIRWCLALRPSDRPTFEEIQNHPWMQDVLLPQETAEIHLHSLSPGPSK
PRKAA1, sequence (Q13131 whole entry, species assumed): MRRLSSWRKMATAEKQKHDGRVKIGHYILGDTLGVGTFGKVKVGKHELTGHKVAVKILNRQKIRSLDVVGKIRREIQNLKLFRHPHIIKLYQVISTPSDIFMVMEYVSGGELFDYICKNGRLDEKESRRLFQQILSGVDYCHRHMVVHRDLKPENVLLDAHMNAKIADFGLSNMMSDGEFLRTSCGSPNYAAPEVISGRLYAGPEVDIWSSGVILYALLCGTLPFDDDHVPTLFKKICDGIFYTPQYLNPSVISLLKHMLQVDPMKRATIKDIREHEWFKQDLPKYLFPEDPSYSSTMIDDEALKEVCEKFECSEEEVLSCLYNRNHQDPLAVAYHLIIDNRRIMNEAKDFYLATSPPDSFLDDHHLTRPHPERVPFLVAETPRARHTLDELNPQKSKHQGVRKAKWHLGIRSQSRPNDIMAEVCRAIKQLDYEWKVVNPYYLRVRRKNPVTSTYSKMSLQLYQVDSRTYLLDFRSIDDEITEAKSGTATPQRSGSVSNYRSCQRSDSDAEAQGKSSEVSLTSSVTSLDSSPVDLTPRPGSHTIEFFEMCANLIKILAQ
PRKAA1, sequence (Q9Y478 whole entry partner, species assumed): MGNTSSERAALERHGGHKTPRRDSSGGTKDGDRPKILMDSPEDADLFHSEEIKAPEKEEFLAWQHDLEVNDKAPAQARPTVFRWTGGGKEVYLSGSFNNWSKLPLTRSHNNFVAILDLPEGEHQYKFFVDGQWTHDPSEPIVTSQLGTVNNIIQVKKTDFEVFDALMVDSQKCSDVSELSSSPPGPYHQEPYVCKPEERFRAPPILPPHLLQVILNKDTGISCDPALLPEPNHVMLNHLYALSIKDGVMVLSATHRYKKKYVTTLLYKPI
PRKAA1, sequence (P54619 whole entry partner, species assumed): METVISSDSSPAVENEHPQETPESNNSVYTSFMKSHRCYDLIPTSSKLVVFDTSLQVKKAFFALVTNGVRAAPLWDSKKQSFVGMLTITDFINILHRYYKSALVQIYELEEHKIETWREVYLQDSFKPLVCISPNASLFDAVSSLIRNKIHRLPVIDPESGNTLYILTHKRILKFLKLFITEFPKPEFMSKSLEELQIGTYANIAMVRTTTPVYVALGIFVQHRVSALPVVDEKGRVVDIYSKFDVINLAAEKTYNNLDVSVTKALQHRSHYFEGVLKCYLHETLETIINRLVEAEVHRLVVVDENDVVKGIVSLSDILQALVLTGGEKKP
TGFBR1, sequence (P36897 34-503, species assumed): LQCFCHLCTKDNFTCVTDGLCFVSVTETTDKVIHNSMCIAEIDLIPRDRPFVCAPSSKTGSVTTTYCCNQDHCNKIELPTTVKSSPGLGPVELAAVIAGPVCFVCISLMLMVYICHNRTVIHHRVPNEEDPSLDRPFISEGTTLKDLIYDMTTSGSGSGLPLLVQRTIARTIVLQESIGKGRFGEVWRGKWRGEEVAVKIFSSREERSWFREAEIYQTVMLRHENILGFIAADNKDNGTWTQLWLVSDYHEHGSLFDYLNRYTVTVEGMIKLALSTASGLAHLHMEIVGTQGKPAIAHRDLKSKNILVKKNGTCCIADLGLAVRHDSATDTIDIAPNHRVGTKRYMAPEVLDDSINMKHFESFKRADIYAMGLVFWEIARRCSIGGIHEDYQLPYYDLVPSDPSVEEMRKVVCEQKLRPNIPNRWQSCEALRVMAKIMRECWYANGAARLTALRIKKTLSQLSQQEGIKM
T1 sequence (P54760 16-987, species assumed): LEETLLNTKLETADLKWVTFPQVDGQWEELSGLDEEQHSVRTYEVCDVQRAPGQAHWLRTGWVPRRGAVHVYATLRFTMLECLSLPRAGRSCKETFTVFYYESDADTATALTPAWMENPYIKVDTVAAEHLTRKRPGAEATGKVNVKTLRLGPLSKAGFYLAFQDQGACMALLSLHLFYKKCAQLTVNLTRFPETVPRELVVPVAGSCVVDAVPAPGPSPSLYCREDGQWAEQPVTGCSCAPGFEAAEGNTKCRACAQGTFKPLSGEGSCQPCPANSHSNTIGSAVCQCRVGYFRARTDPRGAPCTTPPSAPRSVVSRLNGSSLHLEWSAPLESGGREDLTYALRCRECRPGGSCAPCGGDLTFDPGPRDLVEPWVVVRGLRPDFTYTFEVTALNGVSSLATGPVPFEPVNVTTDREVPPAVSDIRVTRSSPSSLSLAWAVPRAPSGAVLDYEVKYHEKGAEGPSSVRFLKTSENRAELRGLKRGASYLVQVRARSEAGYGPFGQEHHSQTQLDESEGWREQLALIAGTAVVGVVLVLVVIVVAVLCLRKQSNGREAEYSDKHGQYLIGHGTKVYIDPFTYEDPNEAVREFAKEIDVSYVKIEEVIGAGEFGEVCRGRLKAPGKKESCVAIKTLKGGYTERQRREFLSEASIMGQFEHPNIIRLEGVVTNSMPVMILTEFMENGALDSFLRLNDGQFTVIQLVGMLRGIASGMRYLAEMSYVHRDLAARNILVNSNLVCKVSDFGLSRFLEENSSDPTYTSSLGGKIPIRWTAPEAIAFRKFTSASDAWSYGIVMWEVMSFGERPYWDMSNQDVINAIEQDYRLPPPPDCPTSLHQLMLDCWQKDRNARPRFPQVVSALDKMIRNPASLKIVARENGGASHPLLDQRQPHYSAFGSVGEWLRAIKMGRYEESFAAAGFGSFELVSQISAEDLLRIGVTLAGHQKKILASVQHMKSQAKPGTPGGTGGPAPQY
PKCD, sequence (Q05655 whole entry, species assumed): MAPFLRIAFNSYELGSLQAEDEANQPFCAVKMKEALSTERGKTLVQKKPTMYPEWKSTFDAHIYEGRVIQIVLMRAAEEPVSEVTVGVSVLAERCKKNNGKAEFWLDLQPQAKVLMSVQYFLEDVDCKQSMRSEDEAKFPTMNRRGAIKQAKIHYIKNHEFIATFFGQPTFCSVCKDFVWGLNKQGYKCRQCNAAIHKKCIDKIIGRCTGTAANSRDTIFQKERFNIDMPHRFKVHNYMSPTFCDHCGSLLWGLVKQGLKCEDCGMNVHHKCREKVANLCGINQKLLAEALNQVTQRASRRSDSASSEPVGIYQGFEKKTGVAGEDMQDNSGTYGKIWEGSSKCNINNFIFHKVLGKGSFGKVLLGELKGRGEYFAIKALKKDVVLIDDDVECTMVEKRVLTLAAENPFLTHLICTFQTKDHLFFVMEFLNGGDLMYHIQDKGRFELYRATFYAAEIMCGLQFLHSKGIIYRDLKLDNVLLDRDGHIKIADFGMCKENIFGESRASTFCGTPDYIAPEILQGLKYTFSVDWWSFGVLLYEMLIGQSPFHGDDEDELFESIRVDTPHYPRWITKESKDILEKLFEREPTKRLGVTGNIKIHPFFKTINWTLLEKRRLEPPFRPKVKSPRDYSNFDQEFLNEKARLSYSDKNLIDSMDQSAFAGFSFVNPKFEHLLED
BTK, sequence (Q06187 whole entry, species assumed): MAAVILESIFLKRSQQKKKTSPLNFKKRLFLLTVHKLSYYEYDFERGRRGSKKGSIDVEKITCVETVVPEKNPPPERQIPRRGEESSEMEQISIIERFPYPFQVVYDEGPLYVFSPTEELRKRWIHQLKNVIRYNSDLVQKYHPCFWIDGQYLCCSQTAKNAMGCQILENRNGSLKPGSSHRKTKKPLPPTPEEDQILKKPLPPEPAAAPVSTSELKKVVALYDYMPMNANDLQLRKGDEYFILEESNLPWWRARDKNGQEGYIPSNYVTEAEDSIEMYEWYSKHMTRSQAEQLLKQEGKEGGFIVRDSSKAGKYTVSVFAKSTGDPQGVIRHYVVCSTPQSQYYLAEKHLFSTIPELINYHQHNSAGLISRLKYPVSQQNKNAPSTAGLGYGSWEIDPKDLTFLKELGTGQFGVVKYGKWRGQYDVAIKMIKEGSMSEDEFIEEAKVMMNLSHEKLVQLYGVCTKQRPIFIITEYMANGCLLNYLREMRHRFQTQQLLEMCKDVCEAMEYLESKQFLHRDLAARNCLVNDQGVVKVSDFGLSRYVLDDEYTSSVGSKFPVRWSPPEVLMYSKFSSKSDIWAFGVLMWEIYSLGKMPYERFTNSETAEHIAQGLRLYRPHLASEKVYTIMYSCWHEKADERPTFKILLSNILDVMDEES
TRKA, sequence (P04629 33-796, species assumed): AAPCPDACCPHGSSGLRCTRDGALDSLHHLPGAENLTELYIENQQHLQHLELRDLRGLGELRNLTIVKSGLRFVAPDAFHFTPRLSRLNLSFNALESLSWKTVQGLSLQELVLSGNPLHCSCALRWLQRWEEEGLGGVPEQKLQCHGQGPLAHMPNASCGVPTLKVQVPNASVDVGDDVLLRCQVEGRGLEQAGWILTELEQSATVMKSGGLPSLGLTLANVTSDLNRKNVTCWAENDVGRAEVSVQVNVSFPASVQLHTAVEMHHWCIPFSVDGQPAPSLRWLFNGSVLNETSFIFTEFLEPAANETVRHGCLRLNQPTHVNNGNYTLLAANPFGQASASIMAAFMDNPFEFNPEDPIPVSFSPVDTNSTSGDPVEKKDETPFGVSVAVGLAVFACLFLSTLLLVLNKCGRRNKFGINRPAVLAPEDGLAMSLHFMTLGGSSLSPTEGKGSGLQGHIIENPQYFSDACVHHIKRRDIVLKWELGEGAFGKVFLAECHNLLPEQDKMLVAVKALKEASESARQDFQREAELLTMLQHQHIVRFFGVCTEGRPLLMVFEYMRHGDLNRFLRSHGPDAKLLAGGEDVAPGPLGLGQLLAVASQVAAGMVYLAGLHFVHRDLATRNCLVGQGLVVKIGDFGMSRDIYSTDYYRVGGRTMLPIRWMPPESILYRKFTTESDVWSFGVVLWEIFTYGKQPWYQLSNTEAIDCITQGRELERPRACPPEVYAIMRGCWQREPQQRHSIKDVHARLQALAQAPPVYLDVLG

CCN1C(=O)N(c2c(F)c(OC)cc(OC)c2F)Cc2cnc3[nH]c(CN4CCOCC4)cc3c21 [INCB054828, pemigatinib]
IC50 [1]: > 10 µM | IC50 [2]: > 10 µM | IC50 [3]: > 10 µM | IC50 [4]: > 10 µM | IC50 [5]: > 10 µM | IC50 [6]: > 10 µM | IC50 [7]: > 10 µM | IC50 [8]: > 10 µM | IC50 [9]: > 10 µM | IC50 [10]: > 10 µM | IC50 [11]: > 10 µM | IC50 [12]: > 10 µM | IC50 [13]: > 10 µM | IC50 [14]: > 10 µM | IC50 [15]: > 10 µM | IC50 [16]: > 10 µM | FGFR3 phosphorylation [17]: a decrease was detected | GI50 [18]: 0.001 µM | GI50 [19]: > 5 µM | fraction unbound at 2 h, 1 μM ([20]; Sprague Dawley, pH 7.4, rat plasma): 0.03 | fraction unbound at 2 h, 1 μM ([20]; pH 7.4, human plasma): 0.113 | clearance ([21]; cynomolgus monkey, plasma, intravenous 1 mg/kg): 3.3 mL/min/kg | Vd ([21]; cynomolgus monkey, plasma, intravenous 1 mg/kg, read-out: Vss): 0.584 L/kg | half-life ([21]; cynomolgus monkey, plasma, intravenous 1 mg/kg, read-out: t½ (converted)): 10.3 h | bioavailability ([21]; cynomolgus monkey, plasma, oral 2 mg/kg): 29% | Hepatic ER ([21]; intravenous 1 mg/kg, % of hepatic blood flow): 8% | AUC ([21]; oral 2 mg/kg): 6.19 µM·h | plasma exposures, dose dependence [22]: dose linear | liver toxicity and changes in blood pressure [23]: not observed | inhibition of the proliferation of primary T cells [24]: no inhibition
